Patent US6956139B2, “(1R, 2S, 5R)-3-1-menthoxyalkan-1-OL cooling sensate” (Takasago International Corporation, priority 2000, dated 2005)

Tested on: evaluators
Test: Six evaluators swished a 150 ppm solution of each compound; flavor quality and cooling reported at intervals after spitting out
Type: in vivo, human
Settings: for quality of the flavor and cooling characteristics, 30 Minutes: 10 ml of 150 ppm solution swished 15 seconds and spit out, 30 minutes after spitting out; for cooling lasting (duration) / Peak cool at (time): 10 ml of 150 ppm solution swished 15 seconds, time after spitting out
Experimental: The enantiomeric compounds of the present invention, Examples 1 through 3 (E1, E2 and E3), were tested against the prior art racemic mixture of 2-(5-methyl-2-(methylethyl)-cyclohexyloxy)-ethan-1-ol (C1). Six evaluators swished 10 ml of a 150 ppm solution of each compound for 15 seconds and spit out. The quality of the flavor and cooling characteristics were reported at various intervals after spitting out.

| SMILES | quality of the flavor and cooling characteristics, 30 Minutes | cooling lasting (duration) | Peak cool at (time) |
| --- | --- | --- | --- |
| CC1CCC(C(C)C)C(OCCO)C1 (centres unmarked) [Example C1, (d,l)-2-(5′-methyl-2′-(methylethyl)cyclohexyloxy)ethan-1-ol, reference compound] | no cooling | 10 to 15 min | – |
| CC(C)[C@@H]1CC[C@@H](C)C[C@H]1OCCO [Example E1, [1′R,2′S,5′R]-2-(5′-methyl-2′-(methylethyl)cyclohexyloxy)ethan-1-ol] | cooling | – | 15 min |
| CC(C)[C@@H]1CC[C@@H](C)C[C@H]1OCCCO [Example E2, [1′R,2′S,5′R]-3-(5′-methyl-2′-(methylethyl)cyclohexyloxy)propan-1-ol] | – | cooling 30+ min. | 10 to 13 min |
| CC(C)[C@@H]1CC[C@@H](C)C[C@H]1OCCCCO [Example E3, [1′R,2′S,5′R]-4-(5′-methyl-2′-(methylethyl)cyclohexyloxy)butan-1-ol] | cooling | – | 7 min |
